“And” between values parts separate entries of the source, which are not always exact repeats. Equal entries are not always repeated.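 1) Cells in 96-well plates. 2) Compound, 48 h, 5 concentrations. 3) Linear interpolation between surrounding doses. 4) Unreached endpoint = highest concentration. GI50 is the concentration that inhibits growth by half. TGI marks complete inhibition of growth.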
Tests used:
Assay in all cases: NCI tumour cell line growth inhibition, 48 h
COLO 205 colon = system: COLO 205 colon
U251 CNS = system: U251 CNS
SK-MEL-2 melanoma = system: SK-MEL-2 melanoma
MDA-N = system: MDA-N
HL-60(TB) leukemia = system: HL-60(TB) leukemia
A549 NSCLC = system: A549 NSCLC
NCI-H460 lung = system: NCI-H460 lung
SR leukemia = system: SR leukemia
ACHN renal = system: ACHN renal
OVCAR-5 ovarian = system: OVCAR-5 ovarian

SMILES	TGI (COLO 205 colon)	TGI (U251 CNS)	TGI (SK-MEL-2 melanoma)	TGI (MDA-N)	TGI (HL-60(TB) leukemia)	TGI (A549 NSCLC)	TGI (NCI-H460 lung)	TGI (SR leukemia)	TGI (ACHN renal)	TGI (OVCAR-5 ovarian)	GI50 (COLO 205 colon)	GI50 (U251 CNS)	GI50 (SK-MEL-2 melanoma)	GI50 (HL-60(TB) leukemia)	GI50 (A549 NSCLC)	GI50 (NCI-H460 lung)
CN1C(=O)C2CCC(=O)N2c2cccnc21 (stereo not drawn)	> 100 µM	> 100 µM	> 100 µM	> 100 µM	> 100 µM	> 100 µM	> 100 µM	> 100 µM	> 100 µM	–	–	–	–	–	–	–
CC(C)CCS(=O)(=O)OCCCCOS(=O)(=O)CCC(C)C	> 100 µM	> 100 µM	–	–	> 100 µM	> 100 µM	> 100 µM	> 100 µM	> 100 µM	–	–	–	–	–	–	–
CC(=O)NC(Cc1ccc(O)cc1)C(=O)O (stereo not drawn)	> 100 µM	> 100 µM	> 100 µM	> 100 µM	> 100 µM	> 100 µM	> 100 µM	–	> 100 µM	> 100 µM	–	–	–	–	–	–
O=c1ccc(-c2ccccc2)n[nH]1	–	> 100 µM	> 100 µM	> 100 µM	> 100 µM	> 100 µM	> 100 µM	> 100 µM	> 100 µM	> 100 µM	–	–	–	–	–	–
Nc1nc(Cl)cc(NCC2(CO)CC(=O)C2)n1	> 100 µM	> 100 µM	> 100 µM	–	> 100 µM	> 100 µM	> 100 µM	> 100 µM	> 100 µM	> 100 µM	–	–	–	–	–	–
N#Cc1c(-c2ccccc2)/c(=C\Nc2cccc(C(F)(F)F)c2)c(=O)n2c1nc1ccccc12	> 100 µM	> 100 µM	> 100 µM	91.4 µM	–	> 100 µM	> 100 µM	–	> 100 µM	> 100 µM	–	–	–	–	–	–
COc1ccc2c(c1)/C(=C/CCN(C)C)c1ccccc1S2	38 µM	> 100 µM	–	> 100 µM	> 100 µM	> 100 µM	> 100 µM	> 100 µM	> 100 µM	–	–	–	–	–	–	–
COc1ccc(C2CC(c3c(O)ccc4ccccc34)=NN2C(C)=O)cc1OC (stereo not drawn)	42.8 µM	> 100 µM	52.1 µM	56.4 µM	–	> 100 µM	93.5 µM	40.6 µM	> 100 µM	> 100 µM	–	–	–	–	–	–
O=C(NC(=O)c1ccccc1[N+](=O)[O-])Nc1ccc(Oc2ncc(Br)cn2)c(Cl)c1	2.22 µM	> 64.4 µM	–	< 0.0159 µM	0.0336 µM and 0.0807 µM	> 100 µM	–	–	0.0688 µM	0.0522 µM	< 0.0188 µM	< 0.0185 µM	0.321 µM	0.0273 µM	< 0.0248 µM	< 0.0197 µM
COc1ccc(-c2cc(O)c3nc4ccccc4n3c2)cc1	> 100 µM	> 100 µM	–	> 100 µM	> 100 µM	> 100 µM	> 100 µM	> 100 µM	–	–	–	–	–	–	–	–
CC[C@@H]1CC[C@@H]2[C@H](CC[C@]3(C)[C@@H](OC(C)=O)CC[C@@H]23)[C@H]1COC(C)=O	36.8 µM	45 µM	34.5 µM	62.2 µM	39.2 µM	59.2 µM	45.9 µM	–	> 100 µM	73.8 µM	–	–	–	–	–	–
COc1ccc(-c2c(C#N)c(-c3ccc(C)cc3)n(NS(=O)(=O)c3ccc(C)cc3)c(=O)c2C#N)cc1	> 100 µM	> 100 µM	> 100 µM	> 100 µM	–	> 100 µM	> 100 µM	–	> 100 µM	> 100 µM	–	–	–	–	–	–
CCC(C(=O)O)c1ccc(OC)cc1 (stereo not drawn)	> 100 µM	> 100 µM	> 100 µM	–	> 100 µM	> 100 µM	> 100 µM	> 100 µM	> 100 µM	> 100 µM	–	–	–	–	–	–
CCCCC#C[I+]c1ccccc1	28.7 µM	29.9 µM	34.1 µM	–	40.1 µM	33.8 µM	26.9 µM	37.5 µM	30.9 µM	28 µM	–	–	–	–	–	–
Cc1cn2c(/C=N/N=C(N)N)c(-c3cccc([N+](=O)[O-])c3)nc2s1	–	2.95 µM	–	–	3.86 µM	4.94 µM	3.78 µM	–	3.03 µM	5.5 µM	–	–	–	–	–	–
CCCN(C(=O)c1ccccc1)C(C#N)c1ccc(C(C#N)N(CCC)C(=O)c2ccccc2)cc1 (stereo not drawn)	> 100 µM	> 100 µM	> 100 µM	> 100 µM	> 100 µM	> 100 µM	–	> 100 µM	> 100 µM	> 100 µM	–	–	–	–	–	–
O=[N+]([O-])c1ccc2c(c1)c(OCc1ccccc1)nn2Cc1ccccc1	–	–	> 100 µM	> 100 µM	> 100 µM	> 100 µM	> 100 µM	–	> 100 µM	> 100 µM	–	–	–	–	–	–
Cc1cc(Cc2cc(C)c(N)cc2N)c(N)cc1N	> 100 µM	> 100 µM	> 100 µM	> 100 µM	> 100 µM	> 100 µM	> 100 µM	–	> 100 µM	> 100 µM	–	–	–	–	–	–
N#CC1(C#N)N[C@@H](c2ccsc2)[C@H]2C(=O)N(c3ccccc3)C(=O)[C@H]21	> 100 µM	> 100 µM	> 100 µM	> 100 µM	42 µM	> 100 µM	–	78.7 µM	> 100 µM	–	–	–	–	–	–	–
COc1ccc(COCCOCc2nc(C#N)c(N)o2)cc1	> 100 µM	> 100 µM	> 100 µM	–	> 100 µM	> 100 µM	> 100 µM	> 100 µM	> 100 µM	> 100 µM	–	–	–	–	–	–
O=C(N/N=C(/COc1ccc(Cl)cc1)N=Cc1ccncc1)c1ccncc1	> 100 µM	> 100 µM	> 100 µM	> 100 µM	> 100 µM	> 100 µM	> 100 µM	–	> 100 µM	> 100 µM	–	–	–	–	–	–
O=C(CCN1CCCCC1)C(=Cc1ccccc1)C(=O)CCN1CCCCC1	> 76.4 µM	> 100 µM	> 100 µM	–	6.05 µM and 48 µM	> 100 µM	> 100 µM	–	–	> 100 µM	2.62 µM	3.04 µM	–	2.2 µM	–	–
C=C(C)C(=O)OC1C/C(CO)=C\C(O)C/C(C)=C/C2OC(=O)C(=C)C21 (stereo not drawn)	38.3 µM	> 100 µM	36.6 µM	–	–	> 100 µM	35 µM	50.5 µM	48.4 µM	> 100 µM	–	–	–	–	–	–

Reference: PubChem BioAssay (NCI)
